Experimental data published in patent US20030050307A1, “Novel indole derivatives” (H. Lundbeck A/S, priority 1999, published 2003).

Columns and labels:
[1] = molecular target: T1, human cloned dopamine D4.2-receptors (Homo sapiens, UniProt P21917, DEL265-296); test: Inhibition of the binding of 3H-YM-09151-2 to human dopamine D4 receptors; settings: [3H]YM-09151-2 0.06 nM; for inhibition at 0.1 µM: at 100 nM, CHO-cell membranes, human D4.2; for IC50: membranes of CHO-cells expressing human D4.2
T1 construct: expressed in transfected cells; host or cells: CHO cells
T1 sequence (P21917 with tags, fused parts or gaps DEL265-296): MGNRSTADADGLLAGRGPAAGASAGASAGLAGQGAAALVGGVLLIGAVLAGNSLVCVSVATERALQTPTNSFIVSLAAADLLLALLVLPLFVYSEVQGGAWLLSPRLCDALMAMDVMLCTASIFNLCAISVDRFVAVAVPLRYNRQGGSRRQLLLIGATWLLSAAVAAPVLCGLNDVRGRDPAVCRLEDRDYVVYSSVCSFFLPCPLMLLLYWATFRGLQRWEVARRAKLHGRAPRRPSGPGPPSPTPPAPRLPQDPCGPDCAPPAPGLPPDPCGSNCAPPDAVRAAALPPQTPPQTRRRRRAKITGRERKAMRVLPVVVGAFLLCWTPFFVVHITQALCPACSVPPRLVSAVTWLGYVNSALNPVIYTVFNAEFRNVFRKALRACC
Description: Inhibition of the Binding of ^3H-YM-09151-2 to Human Dopamine D4 Receptors
By this method, the inhibition by drugs of the binding of [^3H]YM-09151-2 (0.06 nM) to membranes of human cloned dopamine D4.2-receptors expressed in CHO-cells is determined in vitro. Method modified from NEN Life Science Products, Inc., technical data certificate PC2533-10/96.

[2] = molecular target: T2, cloned human 5-HT1A-receptors (Homo sapiens, UniProt P08908); test: Inhibition of 3H-5-CT binding to human 5-HT1A receptors; settings: transfected HeLa cells (HA7), 15 minutes at 37° C., pH 7.7; for inhibition at 0.05 µM: at 50 nM
T2 construct: expressed in transfected cells; host or cells: HeLa cells (HA7)
T2 sequence (P08908 1-422): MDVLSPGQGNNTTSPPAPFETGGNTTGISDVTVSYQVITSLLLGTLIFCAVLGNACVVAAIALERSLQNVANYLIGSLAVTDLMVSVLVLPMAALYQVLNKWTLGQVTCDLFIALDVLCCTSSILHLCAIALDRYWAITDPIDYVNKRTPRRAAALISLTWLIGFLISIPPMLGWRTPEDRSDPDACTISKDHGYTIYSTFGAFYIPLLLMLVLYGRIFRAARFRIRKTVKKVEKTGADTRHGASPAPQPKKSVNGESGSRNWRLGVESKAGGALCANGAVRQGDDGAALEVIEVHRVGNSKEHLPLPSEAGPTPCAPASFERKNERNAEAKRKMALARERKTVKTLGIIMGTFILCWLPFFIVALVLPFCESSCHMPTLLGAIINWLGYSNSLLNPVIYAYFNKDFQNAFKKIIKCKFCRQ
Description: The affinity of the compounds of the invention to 5-HT1A receptors was determined by measuring the inhibition of binding of a radioactive ligand at 5-HT1A-receptors as described in the following test:
Inhibition of ^3H-5-CT Binding to Human 5-HT1A Receptors.
By this method, the inhibition by drugs of the binding of the 5-HT1A-agonist ^3H-5-carboxamido tryptamine (^3H-5-CT) to cloned human 5-HT1A-receptors stably expressed in transfected HeLa cells (HA7) (Fargin, A. et al. J. Biol. Chem. 1989, 264, 14848) is determined in vitro. The assay was performed as a modification of the method described by Harrington, M. A. et al. J. Pharmacol. Exp. Ther. 1994, 268, 1098. Human 5-HT1A-receptors (40 μg of cell homogenate) were incubated for 15 minutes at 37° C. in 50 mM Tris buffer at pH 7.7 in the presence of ^3H-5-CT. Non-specific binding was determined by including 10 μM of metergoline. The reaction was terminated by rapid filtration through Unifilter GF/B filters on a Tomtec Cell Harvester. Filters were counted in a Packard Top Counter.

For `C=CCc1cccc(Cl)c1OCCN1CCN(c2cccc3[nH]ccc23)CC1` [Compound 5ae, 4-{4-[2-(2-Allyl-6-chloro-phenoxy)-ethyl]-piperazin-1-yl}1H-indole], the inhibition at 0.1 µM [1] was 88% and the inhibition at 0.05 µM [2] was 92%.
Molecule `Clc1ccccc1SCCN1CCN(c2cccc3[nH]ccc23)CC1` [Compound 5an, 4-{4-[2-(2-Chloro-phenylsulfanyl)-ethyl]-piperazin-1-yl}-1H-indole] has an inhibition at 0.1 µM [1] of 83% and an inhibition at 0.05 µM [2] of 91%.
`Fc1ccc(OCCCCN2CCN(c3cccc4[nH]ccc34)CC2)c(Br)c1` [Compound 4b, 4-{4-[4-(2-Bromo-4-fluoro-phenoxy)-butyl]-piperazin-1-yl}-1H-indole] showed an IC50 [1] of 0.66 nM and an IC50 [2] of 2.4 nM.
In the case of `N#Cc1cc(Br)c(OCCCN2CCN(c3cccc4[nH]ccc34)CC2)c(Br)c1` [Compound 4o, 3,5-Dibromo-4-{3-[4-(1H-indol-4-yl)-piperazin-1-yl]-propoxy}-benzonitrile], the IC50 [1] is reported as 32 nM and the IC50 [2] is reported as 0.72 nM.
`Brc1cccc(SCCCN2CCN(c3cccc4[nH]ccc34)CC2)c1` [Compound 5ay, 4-{4-[3-(3-Bromo-phenylsulfanyl)-propyl]-piperazin-1-yl}-1H-indole] gave an inhibition at 0.1 µM [1] of 105% and an inhibition at 0.05 µM [2] of 96%.
`Cc1cccc(Cl)c1SCCCCN1CCN(c2cccc3[nH]ccc23)CC1` [Compound 4f] showed an IC50 [1] of 3 nM and an IC50 [2] of 5.8 nM.
`Clc1ccccc1SCCCCN1CCN(c2cccc3[nH]ccc23)CC1` [Compound 5ar, 4-{4-[4-(2-Chloro-phenylsulfanyl)-butyl]-piperazin-1-yl}-1H-indole] showed an inhibition at 0.1 µM [1] of 98% and an inhibition at 0.05 µM [2] of 104%.
Molecule `Fc1cc(Br)cc(F)c1OCCCN1CCN(c2cccc3[nH]ccc23)CC1` [Compound 4m, 4-{4-[3-(4-Bromo-2,6-difluoro-phenoxy)-propyl]-piperazin-1-yl}-1H-indole] has an IC50 [1] of 39 nM and an IC50 [2] of 1 nM.
`Clc1cccc(SCCCCN2CCN(c3cccc4[nH]ccc34)CC2)c1` [Compound 5aq, 4-{4-[4-(3-Chloro-phenylsulfanyl)-butyl]-piperazin-1-yl}-1H-indole] showed an inhibition at 0.1 µM [1] of 98% and an inhibition at 0.05 µM [2] of 100%.
For `Cc1cccc(C)c1SCCCCN1CCN(c2cccc3[nH]ccc23)CC1` [Compound 5ab, 4-{4-[4-(2,6-Dimethyl-phenylsulfanyl)-butyl]-piperazin-1-yl}-1H-indole], the inhibition at 0.1 µM [1] was 95% and the inhibition at 0.05 µM [2] was 83%.
With `Cc1ccc(Cl)c(OCCCCN2CCN(c3cccc4[nH]ccc34)CC2)c1` [Compound 5ak, 4-{4-[4-(2-Chloro-5-methyl-phenoxy)-butyl]-piperazin-1-yl}-1H-indole] the inhibition at 0.1 µM [1] was 93% and the inhibition at 0.05 µM [2] was 91%.
In the case of `Fc1cc(Br)c(OCCCCN2CCN(c3cccc4[nH]ccc34)CC2)c(Br)c1` [Compound 4k, 4-{4-[4-(2,6-Dibromo-4-fluoro-phenoxy)-butyl]-piperazin-1-yl}-1H-indole], the IC50 [1] is reported as 26 nM and the IC50 [2] is reported as 6.7 nM.
`Clc1cccc(SCCCN2CCN(c3cccc4[nH]ccc34)CC2)c1` [Compound 5ao, 4-{4-[3-(3-Chloro-phenylsulfanyl)-propyl]-piperazin-1-yl}-1H-indole] gave an inhibition at 0.1 µM [1] of 102% and an inhibition at 0.05 µM [2] of 100%.
Molecule `Fc1cc(F)c(OCCCN2CCN(c3cccc4[nH]ccc34)CC2)c(Br)c1` [Compound 4h, 4-{4-[3-(2-Bromo-4,6-difluoro-phenoxy)-propyl]-piperazin-1-yl}-1H-indole] has an IC50 [1] of 5.4 nM and an IC50 [2] of 1.4 nM.
`Fc1ccc(SCCN2CCN(c3cccc4[nH]ccc34)CC2)c(Cl)c1` [Compound 3a, 4-{4-[2-(2-Chloro-4-fluoro-phenylsulanyl)-ethyl]-piperazin-1-yl}-1H-indole] was tested, and the IC50 [1] was 6.6 nM and the IC50 [2] was 15 nM.
`Cc1ccc(SCCN2CCN(c3cccc4[nH]ccc34)CC2)c(C)c1` [Compound 5ac, 4-{4-[2-(2,4-Dimethyl-phenylsulfanyl)-ethyl]-piperazin-1-yl}-1H-indole] gave an inhibition at 0.1 µM [1] of 83% and an inhibition at 0.05 µM [2] of 85%.
Molecule `Cc1ccc(OCCCCN2CCN(c3cccc4[nH]ccc34)CC2)c(C)c1` [Compound 5ah, 4-{4-[4-(2,4-Dimethyl-phenoxy)-butyl]-piperazin-1-yl}-1H-indole] has an inhibition at 0.1 µM [1] of 90% and an inhibition at 0.05 µM [2] of 86%.
Work on `Clc1cccc(SCCN2CCN(c3cccc4[nH]ccc34)CC2)c1Cl` [Compound 5ad, 4-{4-[2-(2,3-Dichloro-phenylsulfanyl)-ethyl]-piperazin-1-yl}-1H-indole] yielded an IC50 [1] of 4.1 nM and an inhibition at 0.05 µM [2] of 76%.
`Fc1cc(F)c(OCCN2CCN(c3cccc4[nH]ccc34)CC2)c(Br)c1` [Compound 4p, 4-{4-[2-(2-Bromo-4,6-difluoro-phenoxy)-ethyl]-piperazin-1-yl}-1H-indole] was tested, and the IC50 [1] was 13 nM and the IC50 [2] was 36 nM.
For `Clc1cccc(SCCN2CCN(c3cccc4[nH]ccc34)CC2)c1` [Compound 5am, 4-{4-[2-(3-Chloro-phenylsulfanyl)-ethyl]-piperazin-1-yl}-1H-indole], the inhibition at 0.1 µM [1] was 83% and the inhibition at 0.05 µM [2] was 93%.
In the case of `COc1ccccc1OCCCCN1CCN(c2cccc3[nH]ccc23)CC1` [Compound 5ba, 4-{4-[4-(2-Methoxy-phenoxy)-butyl]-piperazin-1-yl}-1H-indole], the inhibition at 0.1 µM [1] is reported as 80% and the inhibition at 0.05 µM [2] is reported as 83%.
`Cc1ccc(SCCCN2CCN(c3cccc4[nH]ccc34)CC2)cc1C` [Compound 5as, 4-{4-[3-(3,4-Dimethyl-phenylsulfanyl)-propyl]-piperazin-1-yl}-1H-indole] gave an inhibition at 0.1 µM [1] of 99% and an inhibition at 0.05 µM [2] of 103%.
`Clc1ccc(SCCCN2CCN(c3cccc4[nH]ccc34)CC2)cc1Cl` [Compound 5ag, 4-{4-[3-(3,4-Dichloro-phenylsulfanyl)-propyl]-piperazin-1-yl}-1H-indole] gave an inhibition at 0.1 µM [1] of 95% and an inhibition at 0.05 µM [2] of 93%.
`CCc1ccccc1OCCCCN1CCN(c2cccc3[nH]ccc23)CC1` [Compound 5ai, 4-{4-[4-(2-Ethyl-phenoxy)-butyl]-piperazin-1-yl}-1H-indole] showed an inhibition at 0.1 µM [1] of 90% and an inhibition at 0.05 µM [2] of 93%.
`Fc1ccc(OCCCCN2CCN(c3cccc4[nH]ccc34)CC2)c(Br)c1` [Compound 2d, 4-{4-[4-(2-Bromo-4-fluoro-phenoxy)-butyl]-piperazin-1-yl}-1H-indole] gave an IC50 [1] of 1.6 nM and an IC50 [2] of 6.4 nM.
In the case of `CCC(=O)c1cc(F)c(OCCCN2CCN(c3cccc4[nH]ccc34)CC2)c(F)c1` [Compound 4n, 1-(3,5-Difluoro-4-{3-[4-(1H-indol-4-yl)-piperazin-1-yl]-propoxy}-phenyl)-propan-1-one], the IC50 [1] is reported as 230 nM and the IC50 [2] is reported as 0.72 nM.
Molecule `Fc1ccc(OCCCN2CCN(c3cccc4[nH]ccc34)CC2)c(Cl)c1` [Compound 4e, 4-{4-[3-(2-Chloro-4-fluoro-phenoxy)-propyl]-piperazin-1-yl}-1H-indole] has an IC50 [1] of 2 nM and an IC50 [2] of 4.9 nM.
`Clc1ccccc1SCCCN1CCN(c2cccc3[nH]ccc23)CC1` [Compound 2a, 4-{4-[3-(2-Chloro-phenylsulfanyl)-propyl]-piperazin-1-yl}-1H-indole] was tested, and the IC50 [1] was 1.1 nM and the IC50 [2] was 2.4 nM.
`FC(F)(F)Oc1ccc(SCCCN2CCN(c3cccc4[nH]ccc34)CC2)cc1` [Compound 5ax, 4-{4-[3-(4-Trifluoromethoxy-phenylsulfanyl)-propyl]-piperazin-1-yl}-1H-indole] showed an inhibition at 0.1 µM [1] of 98% and an inhibition at 0.05 µM [2] of 81%.
`N#Cc1cccc(OCCCCN2CCN(c3cccc4[nH]ccc34)CC2)c1` [Compound 5at, 3-{4-[4-(1H-Indol-4-yl)-piperazin-1-yl]-butoxy}-benzonitrile] showed an inhibition at 0.1 µM [1] of 95% and an inhibition at 0.05 µM [2] of 92%.
